In patent publication US8435586B2, “Use of alkoxylated flavones to intensify the sensory impression of alcohol” (Symrise AG, priority 2007, dated 2013):

Test system: expert panel
Assay: Tasting of ethanol and HMF-containing mixtures by an expert panel (5% sucrose solution)
Assay type: in vivo, human
From the text: The test matrix used was a 5% sucrose solution having alcohol contents of 4 and 10% by volume respectively. Added to each of the two sucrose solutions were • a) nothing, • b) 2 ppm of HMF87 from Example 1, • c) 2 ppm of HMF99 from Example 1, • d) 5 ppm of HMF87 from Example 1 and • e) 5 ppm of HMF99 from Example 1.
All of these solutions were tasted by an expert panel consisting of five experts in each case.

SMILES	difference between HMF87 and HMF99 in intensification of the alcohol impression (2 and 5 ppm, 4 and 10% by volume alcohol)	intensification of the alcohol impression compared with the samples without HMF (2 or 5 ppm of HMF87 or HMF99, 4 and 10% by volume alcohol, five experts)
COc1ccc(-c2oc3c(OC)c(OC)c(OC)c(OC)c3c(=O)c2OC)cc1OC [HMF99, 3,3′,4′,5,6,7,8-heptamethoxyflavone]	no significant difference	
COc1ccc(-c2oc3c(OC)c(OC)c(OC)c(OC)c3c(=O)c2OC)cc1OC [HMF, 3,3′,4′,5,6,7,8-heptamethoxyflavone]		highly significant intensification of the alcohol impression
